Source: ChEMBL document CHEMBL1201862, “PubChem BioAssay data set” (2004)
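Each compound was tested at five concentrations against cells in 96-well plates for 48 hours. At the GI50, growth is halved.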 Active and inactive are the calls of the source. Rule as the data show it: active = GI50 up to about 1.1 µM and inactive = higher.

Key:
Assay in all cases: NCI tumour cell line growth inhibition, 48 h
786-0 = system: 786-0
DU-145 = system: DU-145
HT-29 = system: HT-29
IGROV-1 = system: IGROV-1
K562 = system: K562
MOLT-4 = system: MOLT-4
Malme-3M = system: Malme-3M
NCI-H226 = system: NCI-H226
NCI-H522 = system: NCI-H522
OVCAR-3 = system: OVCAR-3
OVCAR-4 = system: OVCAR-4
OVCAR-5 = system: OVCAR-5
OVCAR-8 = system: OVCAR-8
RXF 393 = system: RXF 393
SF-295 = system: SF-295
SF-539 = system: SF-539
SK-MEL-2 = system: SK-MEL-2
SK-MEL-5 = system: SK-MEL-5
SW-620 = system: SW-620
CCRF-CEM = system: CCRF-CEM

SMILES	GI50 (786-0)	GI50 (DU-145)	GI50 (HT-29)	GI50 (IGROV-1)	GI50 (K562)	GI50 (MOLT-4)	GI50 (Malme-3M)	GI50 (NCI-H226)	GI50 (NCI-H522)	GI50 (OVCAR-3)	GI50 (OVCAR-4)	GI50 (OVCAR-5)	GI50 (OVCAR-8)	GI50 (RXF 393)	GI50 (SF-295)	GI50 (SF-539)	GI50 (SK-MEL-2)	GI50 (SK-MEL-5)	GI50 (SW-620)	GI50 (CCRF-CEM)
Cc1cc(C(=O)CSC(=S)SC(C)(C)C)ccc1Cl	22.3 µM (inactive)	26.5 µM (inactive)	25.1 µM (inactive)	33.1 µM (inactive)	31.2 µM (inactive)	13.8 µM (inactive)	16.8 µM (inactive)	27 µM (inactive)	14.7 µM (inactive)	16.4 µM (inactive)	31 µM (inactive)	21.9 µM (inactive)	32.1 µM (inactive)	13.4 µM (inactive)	17.7 µM (inactive)	18.7 µM (inactive)	19.9 µM (inactive)	17.8 µM (inactive)	23.2 µM (inactive)	–
Nc1nc(SCc2ccccc2)c2ncn(Cc3ccccc3)c2n1	> 100 µM (inactive)	> 100 µM (inactive)	> 81.8 µM (inactive)	> 100 µM (inactive)	> 87.3 µM (inactive)	> 100 µM (inactive)	> 57.9 µM (inactive)	> 100 µM (inactive)	> 60.4 µM (inactive)	> 67.5 µM (inactive)	> 100 µM (inactive)	> 100 µM (inactive)	> 100 µM (inactive)	62.2 µM (inactive)	> 100 µM (inactive)	> 100 µM (inactive)	> 58.1 µM (inactive)	> 63 µM (inactive)	> 100 µM (inactive)	–
O=C(Nc1ccc(N=C=S)cc1Cl)c1cc(Br)cc(Br)c1O	26.3 µM (inactive)	15.9 µM (inactive)	19.8 µM (inactive)	19.4 µM (inactive)	32.8 µM (inactive)	24.2 µM (inactive)	37.8 µM (inactive)	18.5 µM (inactive)	31.3 µM (inactive)	36.7 µM (inactive)	27.1 µM (inactive)	23.7 µM (inactive)	18.2 µM (inactive)	43.9 µM (inactive)	31.1 µM (inactive)	23.9 µM (inactive)	31.6 µM (inactive)	23.9 µM (inactive)	27.3 µM (inactive)	–
O=C(O)c1c(CC(Cc2ccc3c(c2)CCCC3)C(=O)O)ccc2c1CCCC2 (configuration not stated)	> 100 µM (inactive)	> 100 µM (inactive)	> 100 µM (inactive)	> 100 µM (inactive)	> 100 µM (inactive)	> 100 µM (inactive)	> 100 µM (inactive)	> 100 µM (inactive)	> 100 µM (inactive)	> 100 µM (inactive)	–	> 100 µM (inactive)	> 100 µM (inactive)	> 100 µM (inactive)	> 100 µM (inactive)	> 100 µM (inactive)	> 100 µM (inactive)	> 100 µM (inactive)	> 100 µM (inactive)	> 100 µM (inactive)
Oc1cc(-c2cccc(Cl)c2)nc2ncccc12	0.249 µM (active)	0.644 µM (active)	0.0405 µM (active)	0.0813 µM (active)	0.0208 µM (active)	0.0545 µM (active)	0.139 µM (active)	0.378 µM (active)	0.0474 µM (active)	0.0466 µM (active)	> 66.7 µM (inactive)	–	0.377 µM (active)	0.219 µM (active)	0.0533 µM (active)	0.0532 µM (active)	0.197 µM (active)	0.0387 µM (active)	0.114 µM (active)	0.0689 µM (active)
CN(CCc1ccccn1)c1ccc2c(c1)C(=O)c1ccccc1-2	41.3 µM (inactive)	> 100 µM (inactive)	66.4 µM (inactive)	> 100 µM (inactive)	51.8 µM (inactive)	–	> 100 µM (inactive)	40.6 µM (inactive)	71.1 µM (inactive)	> 100 µM (inactive)	69.5 µM (inactive)	> 100 µM (inactive)	99.1 µM (inactive)	> 100 µM (inactive)	91.4 µM (inactive)	–	28.5 µM (inactive)	35.1 µM (inactive)	> 100 µM (inactive)	> 100 µM (inactive)
Cc1cc(S(=O)(=O)[N-]/C(=N/S(=O)(=O)c2cc(Cl)sc2Cl)[n+]2ccc(N(C)C)cc2)c(S)cc1Cl	68.2 µM (inactive)	39.4 µM (inactive)	30.6 µM (inactive)	> 100 µM (inactive)	43.9 µM (inactive)	84.3 µM (inactive)	–	39.3 µM (inactive)	25.4 µM (inactive)	96.6 µM (inactive)	37.2 µM (inactive)	49.3 µM (inactive)	40.8 µM (inactive)	46.3 µM (inactive)	47.9 µM (inactive)	46.6 µM (inactive)	50.4 µM (inactive)	77.8 µM (inactive)	49.9 µM (inactive)	64 µM (inactive)
CC(=O)/C(=C/NC(=S)c1cccnc1)C(=O)Nc1ccccc1C	> 100 µM (inactive)	> 100 µM (inactive)	> 100 µM (inactive)	> 100 µM (inactive)	> 100 µM (inactive)	> 100 µM (inactive)	–	> 100 µM (inactive)	96.6 µM (inactive)	82.6 µM (inactive)	> 100 µM (inactive)	> 100 µM (inactive)	52.6 µM (inactive)	> 100 µM (inactive)	> 100 µM (inactive)	30.9 µM (inactive)	> 100 µM (inactive)	> 100 µM (inactive)	> 100 µM (inactive)	> 100 µM (inactive)
CCOC(=O)c1cc(C)nc2c1c(=O)n(-c1ccccc1)c(=O)n2CCCCN1CCN(c2ccccc2)CC1	73.1 µM (inactive)	> 100 µM (inactive)	36.6 µM (inactive)	> 100 µM (inactive)	24.9 µM (inactive)	24.5 µM (inactive)	> 100 µM (inactive)	> 100 µM (inactive)	87.1 µM (inactive)	–	34 µM (inactive)	> 100 µM (inactive)	> 100 µM (inactive)	> 100 µM (inactive)	> 100 µM (inactive)	–	64.9 µM (inactive)	38.6 µM (inactive)	> 100 µM (inactive)	–
CCCCCCCCCCCCOP(=O)(O)OCC(N)C(=O)O (configuration not stated)	30.2 µM (inactive)	83.4 µM (inactive)	43.3 µM (inactive)	35.6 µM (inactive)	29.5 µM (inactive)	11.2 µM (inactive)	> 100 µM (inactive)	19.7 µM (inactive)	31.8 µM (inactive)	17.3 µM (inactive)	39 µM (inactive)	40.8 µM (inactive)	38.5 µM (inactive)	21 µM (inactive)	15.7 µM (inactive)	22.3 µM (inactive)	22.8 µM (inactive)	23.4 µM (inactive)	44.4 µM (inactive)	–
Cc1[nH]c2ncn3ncnc3c2c1Cc1ccccc1	> 100 µM (inactive)	> 100 µM (inactive)	> 100 µM (inactive)	92.7 µM (inactive)	–	> 100 µM (inactive)	> 100 µM (inactive)	> 100 µM (inactive)	> 100 µM (inactive)	> 100 µM (inactive)	> 100 µM (inactive)	> 100 µM (inactive)	> 100 µM (inactive)	50 µM (inactive)	> 100 µM (inactive)	> 100 µM (inactive)	> 100 µM (inactive)	> 100 µM (inactive)	> 100 µM (inactive)	> 100 µM (inactive)
C[n+]1c2ccccc2n2c3ccccc3c(NCc3ccco3)c(C#N)c21	1.51 µM (inactive)	3.09 µM (inactive)	2.7 µM (inactive)	–	1.49 µM (inactive)	0.984 µM (active)	2.43 µM (inactive)	2.23 µM (inactive)	0.678 µM (active)	2.7 µM (inactive)	2.82 µM (inactive)	2.12 µM (inactive)	1.24 µM (inactive)	1.65 µM (inactive)	2.67 µM (inactive)	0.959 µM (active)	2 µM (inactive)	2.78 µM (inactive)	0.64 µM (active)	–
CC1CC(C)CC(C)C(O)/C(C#N)=C/C=C/CC(C2CCCC2C(=O)O)OC(=O)CC(O)C(C)C1 (configuration not stated)	< 0.0126 µM (active)	0.111 µM (active)	–	< 0.0118 µM (active)	–	0.022 µM (active)	0.0286 µM (active)	0.0158 µM (active)	< 0.01 µM (active)	–	0.0424 µM (active)	< 0.01 µM (active)	0.0192 µM (active)	< 0.01 µM (active)	0.0303 µM (active)	< 0.01 µM (active)	< 0.01 µM (active)	–	0.0335 µM (active)	0.0118 µM (active)
Cn1cnc([N+](=O)[O-])c1SCC(=O)O	> 100 µM (inactive)	> 100 µM (inactive)	> 100 µM (inactive)	> 100 µM (inactive)	> 100 µM (inactive)	–	> 100 µM (inactive)	> 100 µM (inactive)	> 100 µM (inactive)	> 100 µM (inactive)	> 100 µM (inactive)	> 100 µM (inactive)	> 100 µM (inactive)	> 100 µM (inactive)	> 100 µM (inactive)	–	> 100 µM (inactive)	> 100 µM (inactive)	> 100 µM (inactive)	> 100 µM (inactive)
COc1ccc(N2C(=O)C(=O)N(c3ccccc3[N+](=O)[O-])C2=S)cc1	33 µM (inactive)	38.4 µM (inactive)	33.8 µM (inactive)	34.8 µM (inactive)	32.1 µM (inactive)	34.8 µM (inactive)	36.8 µM (inactive)	28.2 µM (inactive)	10.7 µM (inactive)	–	18.9 µM (inactive)	22.4 µM (inactive)	21.1 µM (inactive)	18 µM (inactive)	35.1 µM (inactive)	30.1 µM (inactive)	14.6 µM (inactive)	17.6 µM (inactive)	37.9 µM (inactive)	81.7 µM (inactive)
